Source: ChEMBL document CHEMBL3232776, “Emergence of pyrido quinoxalines as new family of antimalarial agents” (Eur J Med Chem, 2014)
pIC50: −log10 of the molar value. The source made the active and inactive calls. The rule behind the calls is not given here.

Experiments:
Plasmodium falciparum [1] = experiment: Potency index, ratio of ciprofloxacin IC50 to compound IC50 for chloroquine-sensitive Plasmodium falciparum 3D7 infected in human erythrocytes; format: functional
Plasmodium falciparum [2] = experiment: Antimalarial activity against chloroquine-sensitive Plasmodium falciparum 3D7 infected in human erythrocytes assessed as parasite growth inhibition after 50 hrs by SYBR Green1 dye-based fluorescence assay; format: functional, organism-based; settings: for pIC50: Plasmodium falciparum, 3D7, 50 h, read-out: IC50
Plasmodium falciparum [3] = experiment: Potency index, ratio of ciprofloxacin IC50 to compound IC50 for chloroquine-resistant Plasmodium falciparum Dd2 infected in human erythrocytes; format: functional
[4] = Solubility of the compound at 93 uM; format: physicochemical
Plasmodium falciparum [5] = experiment: Antimalarial activity against chloroquine-resistant Plasmodium falciparum Dd2 infected in human erythrocytes assessed as parasite growth inhibition after 50 hrs by SYBR Green1 dye-based fluorescence assay; format: functional, cell-based; settings: Dd2, 50 h
HepG2 = experiment: Cytotoxicity against human HepG2 cells assessed as cell viability after 72 hrs by MTT assay; format: cell-based; settings: HepG2, 72 h
THP-1 = experiment: Cytotoxicity against human THP1 cells assessed as cell viability after 72 hrs by MTT assay; format: cell-based; settings: THP-1, 72 h
[6] = Selectivity index, ratio of IC50 for human THP1 cells to IC50 for chloroquine-sensitive Plasmodium falciparum 3D7; format: toxicity, cell-based, THP-1; settings: read-out: Ratio IC50
[7] = Selectivity index, ratio of IC50 for human HepG2 cells to IC50 for chloroquine-sensitive Plasmodium falciparum 3D7; format: toxicity, cell-based; settings: read-out: Ratio IC50
Plasmodium falciparum [8] = experiment: Antimalarial activity against blood stage form of Plasmodium falciparum assessed as incorporation of [3H]hypoxanthine after 72 hrs by liquid scintillation counting; format: functional, organism-based

Which “Ratio IC50” value (Plasmodium falciparum [1]) does the source give for `CCOC(=O)c1cn(CC(F)(F)F)c2ccc3nc(-c4ccccc4)c(-c4ccccc4)nc3c2c1=O` here?
Its value is 2.

What about the pIC50 (Plasmodium falciparum [2]) of the same compound?
Its pIC50 is 4.88.

And the “Ratio IC50” value (Plasmodium falciparum [3])?
The value was 2.

Which “growth inhibition (GI)” value (Plasmodium falciparum [2]) does the source give for `C#CCn1cc(C(=O)O)c(=O)c2c3nc(-c4ccccc4)c(-c4ccccc4)nc3ccc21` here?
The value was “inactive”.

What about the solubility [4] of the same compound?
The solubility was “Insoluble”.

With `CCCCn1cc(C(=O)O)c(=O)c2c3nc(-c4ccc(F)cc4)c(-c4ccc(F)cc4)nc3ccc21` as the compound, how does the pIC50 (Plasmodium falciparum [2]) read?
Its pIC50 is 4.39.

Which “Ratio IC50” value (Plasmodium falciparum [1]) does the source give for `C#CCn1cc(C(=O)OCC)c(=O)c2c3nc(-c4ccc(F)cc4)c(-c4ccc(F)cc4)nc3ccc21` here?
Its value is 2.

What about the pIC50 (Plasmodium falciparum [2]) of the same compound?
Its pIC50 is 4.73.

And the “Ratio IC50” value (Plasmodium falciparum [3])?
The value was 2.

Which results are given for `CCOC(=O)c1cn(CC)c2ccc3nc(-c4ccccc4)c(-c4ccccc4)nc3c2c1=O`?
Ratio IC50 (Plasmodium falciparum [1]): 2; pIC50 (Plasmodium falciparum [2]): 4.81; pIC50 (Plasmodium falciparum [5]): 4.95; Ratio IC50 (Plasmodium falciparum [3]): 2

With `CCOC(=O)c1cn(Cc2ccc(F)cc2)c2ccc3nc(-c4ccc(F)cc4)c(-c4ccc(F)cc4)nc3c2c1=O` as the compound, how does the “Ratio IC50” value (Plasmodium falciparum [1]) read?
The value was 2.

And the pIC50 (Plasmodium falciparum [2])?
The pIC50 was 5.12.

And the pIC50 (HepG2)?
The pIC50 was 3.70.

What about the pIC50 (THP-1) of the same compound?
Its pIC50 is 3.85.

What about the pIC50 (Plasmodium falciparum [5]) of the same compound?
Its pIC50 is 5.15.

And the “Ratio IC50” value (Plasmodium falciparum [3])?
Its value is 2.

And the selectivity ratio [6]?
The selectivity ratio was 18.4.

And the selectivity ratio [7]?
The selectivity ratio was 26.4.

With `CCOC(=O)C(=CNc1ccc2nc(-c3ccccc3)c(-c3ccccc3)nc2c1)C(=O)OCC` as the compound, how does the pIC50 (Plasmodium falciparum [2]) read?
Its pIC50 is 4.80.

And the pIC50 (Plasmodium falciparum [5])?
The pIC50 was 4.81.

With `CCn1cc(C(=O)O)c(=O)c2c3nc(-c4ccc(F)cc4)c(-c4ccc(F)cc4)nc3ccc21` as the compound, how does the pIC50 (Plasmodium falciparum [2]) read?
Its pIC50 is less than 4.30.

With `O=C(O)c1cn(Cc2ccc(F)cc2)c2ccc3nc(-c4ccc(F)cc4)c(-c4ccc(F)cc4)nc3c2c1=O` as the compound, how does the pIC50 (Plasmodium falciparum [2]) read?
The pIC50 was less than 4.30.

For `CCn1cc(C(=O)O)c(=O)c2c3nc(-c4ccccc4)c(-c4ccccc4)nc3ccc21`, which “growth inhibition (GI)” value (Plasmodium falciparum [2]) is on record?
Its value is “inactive”.

What about the solubility [4] of the same compound?
Its solubility is “Insoluble”.

With `O=C(O)c1cn(Cc2ccc(C(F)(F)F)cc2)c2ccc3nc(-c4ccc(F)cc4)c(-c4ccc(F)cc4)nc3c2c1=O` as the compound, how does the pIC50 (Plasmodium falciparum [2]) read?
Its pIC50 is less than 4.30.

What does the source list for `CCCCn1cc(C(=O)OCC)c(=O)c2c3nc(-c4ccc(F)cc4)c(-c4ccc(F)cc4)nc3ccc21`?
Ratio IC50 (Plasmodium falciparum [1]): 2; pIC50 (Plasmodium falciparum [2]): < 4.30; Ratio IC50 (Plasmodium falciparum [3]): 2

With `COc1cccc2c1C(=O)c1c(O)c3c(c(O)c1C2=O)C[C@@](O)(C(=O)CO)C[C@@H]3O[C@H]1C[C@H](N)[C@H](O)[C@H](C)O1` [DOXORUBICIN] as the compound, how does the pIC50 (HepG2) read?
The pIC50 was 6.70.

And the pIC50 (THP-1)?
The pIC50 was 7.30.

What does the source list for `O=C(O)c1cn(Cc2ccc(F)cc2)c2ccc3nc(-c4ccccc4)c(-c4ccccc4)nc3c2c1=O`?
growth inhibition (GI) (Plasmodium falciparum [2]): inactive; solubility [4]: Insoluble

With `C#CCn1cc(C(=O)O)c(=O)c2c3nc(-c4ccc(F)cc4)c(-c4ccc(F)cc4)nc3ccc21` as the compound, how does the pIC50 (Plasmodium falciparum [2]) read?
The pIC50 was less than 4.30.

What does the source list for `C#CCn1cc(C(=O)OCC)c(=O)c2c3nc(-c4ccccc4)c(-c4ccccc4)nc3ccc21`?
Ratio IC50 (Plasmodium falciparum [1]): 2; IC50 (Plasmodium falciparum [2]): ND(Insoluble); Ratio IC50 (Plasmodium falciparum [3]): 2; solubility [4]: Insoluble

With `CCOC(=O)C(=CNc1ccc2nc(-c3ccc(F)cc3)c(-c3ccc(F)cc3)nc2c1)C(=O)OCC` as the compound, how does the pIC50 (Plasmodium falciparum [2]) read?
Its pIC50 is 4.67.

With `CCOC(=O)c1cnc2ccc3nc(-c4ccccc4)c(-c4ccccc4)nc3c2c1O` as the compound, how does the pIC50 (Plasmodium falciparum [2]) read?
Its pIC50 is 4.53.

Which “Ratio IC50” value (Plasmodium falciparum [1]) does the source give for `CCOC(=O)c1cn(Cc2ccc(C(F)(F)F)cc2)c2ccc3nc(-c4ccc(F)cc4)c(-c4ccc(F)cc4)nc3c2c1=O` here?
Its value is 2.

What about the pIC50 (Plasmodium falciparum [2]) of the same compound?
Its pIC50 is less than 4.30.

And the “Ratio IC50” value (Plasmodium falciparum [3])?
Its value is 2.

For `O=C(O)c1cn(CC(F)(F)F)c2ccc3nc(-c4ccccc4)c(-c4ccccc4)nc3c2c1=O`, which “growth inhibition (GI)” value (Plasmodium falciparum [2]) is on record?
Its value is “inactive”.

And the solubility [4]?
The solubility was “Insoluble”.

With `O=C(O)c1cn(CC(F)(F)F)c2ccc3nc(-c4ccc(F)cc4)c(-c4ccc(F)cc4)nc3c2c1=O` as the compound, how does the pIC50 (Plasmodium falciparum [2]) read?
Its pIC50 is less than 4.30.

With `CCOC(=O)c1cn(Cc2ccc(C(F)(F)F)cc2)c2ccc3nc(-c4ccccc4)c(-c4ccccc4)nc3c2c1=O` as the compound, how does the “Ratio IC50” value (Plasmodium falciparum [1]) read?
The value was 2.

And the IC50 (Plasmodium falciparum [2])?
Its IC50 is “ND(Insoluble)”.

And the “Ratio IC50” value (Plasmodium falciparum [3])?
The value was 2.

What about the solubility [4] of the same compound?
The solubility was “Insoluble”.

With `CCCCn1cc(C(=O)O)c(=O)c2c3nc(-c4ccccc4)c(-c4ccccc4)nc3ccc21` as the compound, how does the “growth inhibition (GI)” value (Plasmodium falciparum [2]) read?
The value was “inactive”.

What about the solubility [4] of the same compound?
Its solubility is “Insoluble”.

What does the source list for `CCOC(=O)c1cn(CC(F)(F)F)c2ccc3nc(-c4ccc(F)cc4)c(-c4ccc(F)cc4)nc3c2c1=O`?
Ratio IC50 (Plasmodium falciparum [1]): 5; pIC50 (Plasmodium falciparum [2]): 5.41; pIC50 (HepG2): 3.60; pIC50 (THP-1): 3.56; pIC50 (Plasmodium falciparum [5]): 5.34; Ratio IC50 (Plasmodium falciparum [3]): 5; selectivity ratio [6]: 70.2; selectivity ratio [7]: 63.8

With `Cc1c(F)c(N2CCNC(C)C2)cc2c1c(=O)c(C(=O)O)cn2C1CC1` (stereo not drawn) [GREPAFLOXACIN] as the compound, how does the pIC50 (Plasmodium falciparum [8]) read?
Its pIC50 is 4.70.

With `CCn1cc(C(=O)O)c(=O)c2cc(F)c(N3CCNCC3)nc21` [ENOXACIN] as the compound, how does the pIC50 (Plasmodium falciparum [8]) read?
The pIC50 was 4.70.

With `NC1CCN(c2c(F)cc3c(=O)c(C(=O)O)cn(C4CC4)c3c2Cl)C1` (stereo not drawn) [CLINAFLOXACIN] as the compound, how does the pIC50 (Plasmodium falciparum [8]) read?
Its pIC50 is 4.70.

For `CCCCn1cc(C(=O)OCC)c(=O)c2c3nc(-c4ccccc4)c(-c4ccccc4)nc3ccc21`, which “Ratio IC50” value (Plasmodium falciparum [1]) is on record?
The value was 2.

What about the pIC50 (Plasmodium falciparum [2]) of the same compound?
Its pIC50 is 5.04.

And the “Ratio IC50” value (Plasmodium falciparum [3])?
The value was 2.

With `CCOC(=O)c1cn(CC)c2ccc3nc(-c4ccc(F)cc4)c(-c4ccc(F)cc4)nc3c2c1=O` as the compound, how does the “Ratio IC50” value (Plasmodium falciparum [1]) read?
The value was 2.

And the pIC50 (Plasmodium falciparum [2])?
The pIC50 was 4.49.

What about the “Ratio IC50” value (Plasmodium falciparum [3]) of the same compound?
The value was 2.

Which “growth inhibition (GI)” value (Plasmodium falciparum [2]) does the source give for `O=C(O)c1cn(Cc2ccc(C(F)(F)F)cc2)c2ccc3nc(-c4ccccc4)c(-c4ccccc4)nc3c2c1=O` here?
The value was “inactive”.

What about the solubility [4] of the same compound?
Its solubility is “Insoluble”.

For `CCOC(=O)c1cn(Cc2ccc(F)cc2)c2ccc3nc(-c4ccccc4)c(-c4ccccc4)nc3c2c1=O`, which “Ratio IC50” value (Plasmodium falciparum [1]) is on record?
The value was 3.3.

What about the pIC50 (Plasmodium falciparum [2]) of the same compound?
Its pIC50 is 5.16.

And the pIC50 (HepG2)?
The pIC50 was 3.82.

And the pIC50 (THP-1)?
The pIC50 was 3.70.

What about the pIC50 (Plasmodium falciparum [5]) of the same compound?
Its pIC50 is 5.20.

What about the “Ratio IC50” value (Plasmodium falciparum [3]) of the same compound?
The value was 3.3.

And the selectivity ratio [6]?
The selectivity ratio was 28.8.

What about the selectivity ratio [7] of the same compound?
The selectivity ratio was 21.6.

With `CCOC(=O)c1cnc2ccc3nc(-c4ccc(F)cc4)c(-c4ccc(F)cc4)nc3c2c1O` as the compound, how does the pIC50 (Plasmodium falciparum [2]) read?
The pIC50 was 4.80.

What about the pIC50 (Plasmodium falciparum [5]) of the same compound?
The pIC50 was 4.57.

With `O=C(O)c1cn(C2CC2)c2cc(N3CCNCC3)c(F)cc2c1=O` [CIPROFLOXACIN] as the compound, how does the pIC50 (Plasmodium falciparum [2]) read?
Its pIC50 is 4.64.

And the pIC50 (THP-1)?
The pIC50 was 4.22.

What about the pIC50 (Plasmodium falciparum [5]) of the same compound?
The pIC50 was 4.47.

And the selectivity ratio [6]?
The selectivity ratio was 2.61.

And the pIC50 (Plasmodium falciparum [8])?
The pIC50 was 4.70.
